{"source": "patent US7582652B2", "about": "“Kinase inhibitors” (Eli Lilly and Company, priority 2004, dated 2009)", "system": "TNF-α", "experiment": "Inhibition of TNF-α in vivo (LPS-challenged mice)", "parameters": "species or system female Balb/c mice", "conditions": "p.o., LPS 5 mg/kg i.v. after 2 h, serum 1 h after LPS", "method": "Compounds are administered p.o. (100, 30, 10 and 3 mg/kg) to female Balb/c mice (5 mice/dose). After 2 h, lipopolysaccharide (LPS, E. coli serotype 0111:B4, 5 mg/kg) is administered i.v. in the tail vein of each mouse. One hour after LPS administration the mice are asphyxiated by CO2 inhalation and bled out via cardiac puncture.\nTNF-α/Luminex Detection Assay (Bio-Rad Bio-Plex Kit—Catalog #171-G12221)\nReconstitute the lyophilized premixed TNF-α standard (1 standard tube/two 96-well plates) with 50 μL sterile water (500,000 pg/mL). Gently vortex for 5 seconds, incubate on ice for 30 min, and vortex for 5 seconds before use. Label a set of twelve 1.5 mL tubes with #1-thru #12 and then add the amounts of cell media shown below to the appropriate tubes (standard concentrations are as follows: 50,000; 25,000; 12,500; 6,250; 3,125; 1,562.5; 781.3; 390.6; 195.3; 97.7; 48.8; and 24.4 pg/mL). Vortex the premixed anti-cytokine conjugated beads (25×) vigorously for 30 seconds. Dilute the anti-cytokine conjugated beads to a 1× concentration using 1× Bio-Plex Assay Buffer. […] Read standards and samples on Luminex machine. These intensity readings are then converted to picogram/milliliter units based on a 12-point standard curve created in duplicate using a four-parameter logistic regression method (Bio-Plex Manager 2.0, Bio-Rad), and the IC50 calculated. […]", "data": [{"molecule": "CC(C)(C)Cn1c(N)nc2ccc(-c3nc(C(C)(C)C)[nH]c3-c3ccc(F)cc3)nc21.CS(=O)(=O)O.CS(=O)(=O)O", "note": "[EXAMPLE 104, Crystalline 5-[2-tert-Butyl-5-(4-fluoro-phenyl)-1H-imidazol-4-yl]-3-(2,2-dimethyl-propyl)-3H-imidazo[4,5-b]pyridin-2-ylamine dimethanesulfonate]", "values": [{"measurement": "IC50 (suppressed TNF-α in vivo)", "result": "< 1", "unit": "mg/kg"}]}]}
